Tests used:
Type in all cases: physicochemical
[1] = Quat removal from brine: additive, then heptane extraction, water layer analyzed for quat (Examples 1-4); details: brine of 97.50 g water and 2.50 μg sodium chloride dosed with 1.52 g methanolic quat solution; 90 ml sample; 1.00 g DDBSA or 0.90 g oleic acid; shaken 1 minute with 10 ml heptane; centrifuged
Procedure: A brine solution comprising 97.50 g of water and […] of sodium chloride was dosed with 1.52 g of a methanolic solution of a quat (solution contains 33% methanol and 67% RE 4136 quaternary ammonium compound available from Baker Petrolite). A 90 ml sample of the water, sodium chloride, quat solution was shaken by hand for 1 minute with 10 ml of heptane. The mixture is centrifuged to separate the layers and the water layer was analyzed for quat. The above test was repeated but in this case the sample was dosed with 1.00 g of dodecylbenzenesulfonic acid (DDBSA) or 0.90 g of oleic acid (as indicated) before the addition of heptane and shaken by hand. These two cases required prolonged centrifugation to separate the phases. Again, the water phase was analyzed for quat. The quat concentration is expressed in ppm of methanolic quat solution.

[2] = Quat removal from brine: additive without heptane, oil layer separated, water layer washed with heptane (Examples 5-6); details: same brine/quat solution, 90 ml; 0.45 g p-TSA or 0.74 g naphthenic acids; shaken 1 minute without heptane; water layer washed with 10 ml heptane
Procedure: In a second set of tests, a 90 ml sample of the above water, sodium chloride and quat solution was dosed with 0.45 g of para-toluenesulfonic acid (p-TSA) or 0.74 g of a mixture of naphthenic acids (as indicated). In this test, the mixture was shaken 1 minute by hand in the absence of heptane. The samples were centrifuged. An oil layer separated and remained at the top of the samples. The slightly hazy water layer was removed. The water layer was washed with 10 ml of heptane and again centrifuged. The clear water layer was analyzed for quat.

[3] = Quat removal from 16% sodium chloride brine suspension (Examples 7-8); details: brine of 84 g water and 16 g sodium chloride with 1.52 g quat solution, used as suspension; 90 ml; 0.45 g p-TSA or 0.74 g naphthenic acids
Procedure: In a third set of tests, a brine solution comprising 84 g of water and 16 g of sodium chloride was dosed with 1.52 g of the above quat solution. In this case, the quat separates to some extent from the brine on standing and was used immediately in the next step as a suspension. A 90 ml sample of this suspension was dosed with 0.45 g of p-TSA or 0.74 g of a mixture of naphthenic acids (as indicated). The samples were treated as above and analyzed for quat.

Row | Structure (SMILES) | ppm of methanolic quat solution in water [1] | ppm of methanolic quat solution in water [2] | ppm of methanolic quat solution in water [3]
1 | CCCCCCCC/C=C\CCCCCCCC(=O)O [Oleic acid, oleic acid] | 121 ppm | – | –
2 | CCCCCCC [Heptane only, heptane] | 15,000 ppm | – | –
3 | Cc1ccc(S(=O)(=O)O)cc1 [p-TSA, para-toluenesulfonic acid] | – | 178 ppm | 88 ppm
4 | CCCCCCCCCCCCc1ccc(S(=O)(=O)O)cc1 [DDBSA, dodecylbenzenesulfonic acid] | 76 ppm | – | –

Reference: US6841089B2, “Detoxification of onium compounds” (Baker Hughes Incorporated, priority 2001, dated 2005)
